In patent US20250288681A1, “SOLID COMPOSITIONS COMPRISING A GLUCOKINASE ACTIVATOR AND METHODS OF MAKING AND USING THE SAME” (vTv Therapeutics LLC, priority 2013, published 2025) one finds stability data, which are given here for two compounds.

A short description of this data set: stability of solid form (statement only). The data set is classed as physicochemical. To be noted: qualitative statement, no data.

Regarding `CCCO[C@H]1CC[C@H](N(C(=O)Nc2ncc(SCC(=O)O)s2)C2CCCCC2)CC1` [UD1-FA, {2-[3-cyclohexyl-3-(trans-4-propoxy-cyclohexyl)-ureido]-thiazol-5-ylsulfanyl}-acetic acid], the stability entry is reported as “greater stability relative to some of its pharmaceutically acceptable salts”.
For `CCCO[C@H]1CC[C@H](N(C(=O)Nc2ncc(SCC(=O)O)s2)C2CCCCC2)CC1` [Form A, {2-[3-cyclohexyl-3-(trans-4-propoxy-cyclohexyl)-ureido]-thiazol-5-ylsulfanyl}-acetic acid] the value was “particularly stable”.
